Key:
[1] = target: T1, sChoK (S. pneumoniae isoform of choline kinase, LicA) (Streptococcus pneumoniae, UniProt Q8DPI4); assay: sChoK activity inhibition (authors' earlier work); format: biochemical; conditions: authors' own earlier result (Zimmerman and Ibrahim 2017), restated here; cited from earlier work
T1 construct: gene pck; ChoK activity measured in cell extracts
T1 sequence (Q8DPI4 1-289): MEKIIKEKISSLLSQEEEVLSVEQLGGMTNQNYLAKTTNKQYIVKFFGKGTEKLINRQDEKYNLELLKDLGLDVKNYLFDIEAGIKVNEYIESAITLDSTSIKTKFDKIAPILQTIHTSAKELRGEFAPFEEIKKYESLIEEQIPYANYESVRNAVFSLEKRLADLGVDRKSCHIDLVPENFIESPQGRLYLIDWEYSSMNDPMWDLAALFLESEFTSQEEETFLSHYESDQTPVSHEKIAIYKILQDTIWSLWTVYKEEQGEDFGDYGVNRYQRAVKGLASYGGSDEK
From the text: sChoK activity inhibition (authors' earlier work) on sChoK (S. pneumoniae isoform of choline kinase, LicA)

[2] = target: T1, sChoK (S. pneumoniae isoform of choline kinase, LicA); assay: colorimetric ChoK activity assay in cell extracts; format: biochemical
From the text: colorimetric ChoK activity assay in cell extracts on sChoK (S. pneumoniae isoform of choline kinase, LicA)

SMILES	IC50 [1]	IC50 [2]
C[N+]1(C)CCOC(O)(c2ccc(-c3ccc(C4(O)C[N+](C)(C)CCO4)cc3)cc2)C1 (stereo not drawn) [HC-3]	> 2.7 mM	
CN(C)c1cc[n+](Cc2ccc(CCCCc3ccc(C[n+]4ccc(N(C)C)cc4)cc3)cc2)cc1 [MN58b]		197 µM
CN(c1ccc(Cl)cc1)c1cc[n+](Cc2ccc(-c3ccc(C[n+]4ccc(N(C)c5ccc(Cl)cc5)c5ccccc54)cc3)cc2)c2ccccc12 [RSM-932A]		0.5 µM

Reference: paper PMC6813931, “Choline Kinase Emerges as a Promising Drug Target in Gram-Positive Bacteria” (Frontiers in Microbiology, 2019)
